Results from ChEMBL document CHEMBL1201862, “PubChem BioAssay data set” (2004).
Active and inactive are the calls of the source.

Key:
[1] = molecular target: T1, Aryl hydrocarbon receptor (Homo sapiens, UniProt P35869); assay: Luminescence-based cell-based high throughput dose response assay for activators of the Aryl Hydrocarbon Receptor (AHR). [Related pubchem assays: 2796 (Primary screen (AHR activators in singlicate)), 2845 (Confirmation screen (AHR activators in triplicate)), 434939 (Counterscreen (PXR activators in triplicate)), 2804 (Summary (AHR activators))]; format: ADME
T1 sequence (P35869 whole entry): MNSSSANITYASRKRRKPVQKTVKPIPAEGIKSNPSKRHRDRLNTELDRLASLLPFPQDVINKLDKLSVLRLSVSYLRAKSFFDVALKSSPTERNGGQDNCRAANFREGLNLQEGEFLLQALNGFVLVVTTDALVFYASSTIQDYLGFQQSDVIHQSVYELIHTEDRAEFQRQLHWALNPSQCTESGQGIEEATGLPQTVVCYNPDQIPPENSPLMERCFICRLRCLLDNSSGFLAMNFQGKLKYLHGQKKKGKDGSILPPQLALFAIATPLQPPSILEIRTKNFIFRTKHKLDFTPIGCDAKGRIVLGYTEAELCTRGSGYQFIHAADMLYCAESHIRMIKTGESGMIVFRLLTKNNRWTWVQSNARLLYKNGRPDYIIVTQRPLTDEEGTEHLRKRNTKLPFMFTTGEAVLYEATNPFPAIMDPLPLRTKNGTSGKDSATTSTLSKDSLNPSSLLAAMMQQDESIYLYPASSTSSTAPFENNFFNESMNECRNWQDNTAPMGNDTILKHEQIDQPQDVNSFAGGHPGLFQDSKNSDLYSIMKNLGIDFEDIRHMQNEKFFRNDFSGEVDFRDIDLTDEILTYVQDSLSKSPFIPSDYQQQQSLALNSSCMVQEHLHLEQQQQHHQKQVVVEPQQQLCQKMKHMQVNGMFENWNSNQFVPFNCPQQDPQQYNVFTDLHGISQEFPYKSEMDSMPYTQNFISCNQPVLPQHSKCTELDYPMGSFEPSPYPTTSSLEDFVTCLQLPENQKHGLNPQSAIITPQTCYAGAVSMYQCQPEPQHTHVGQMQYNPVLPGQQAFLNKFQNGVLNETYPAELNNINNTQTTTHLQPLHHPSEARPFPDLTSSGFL

[2] = molecular target: T2, Replicative DNA helicase DnaB (Mycobacterium tuberculosis, UniProt P9WMR3); assay: DnaB intein splicing inhibitors, dose response, biochemical, cell-free fluorescence (AID 449749); format: functional
T2 sequence (P9WMR3 whole entry): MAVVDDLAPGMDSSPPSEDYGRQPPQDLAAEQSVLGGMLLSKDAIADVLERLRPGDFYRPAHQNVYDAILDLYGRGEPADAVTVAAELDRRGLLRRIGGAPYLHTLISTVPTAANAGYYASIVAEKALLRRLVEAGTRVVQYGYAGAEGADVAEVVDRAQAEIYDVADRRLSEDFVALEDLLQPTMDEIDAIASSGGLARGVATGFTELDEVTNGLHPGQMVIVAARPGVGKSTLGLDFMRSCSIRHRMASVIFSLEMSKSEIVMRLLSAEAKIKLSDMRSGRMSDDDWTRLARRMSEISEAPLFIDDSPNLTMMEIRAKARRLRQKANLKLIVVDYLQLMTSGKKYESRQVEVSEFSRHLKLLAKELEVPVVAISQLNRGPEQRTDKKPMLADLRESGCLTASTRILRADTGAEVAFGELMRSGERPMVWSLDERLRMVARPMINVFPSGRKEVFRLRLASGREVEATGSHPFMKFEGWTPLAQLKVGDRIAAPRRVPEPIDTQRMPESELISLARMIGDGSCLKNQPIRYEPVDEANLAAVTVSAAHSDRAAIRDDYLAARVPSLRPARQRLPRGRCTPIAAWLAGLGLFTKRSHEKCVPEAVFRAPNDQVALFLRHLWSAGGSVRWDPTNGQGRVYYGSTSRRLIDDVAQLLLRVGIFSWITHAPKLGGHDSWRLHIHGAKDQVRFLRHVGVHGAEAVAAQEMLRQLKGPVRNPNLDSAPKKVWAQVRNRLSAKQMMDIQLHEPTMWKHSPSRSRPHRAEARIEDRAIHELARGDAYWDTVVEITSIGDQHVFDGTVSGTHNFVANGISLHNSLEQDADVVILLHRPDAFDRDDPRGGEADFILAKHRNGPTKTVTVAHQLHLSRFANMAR

Protein RecA = molecular target: T3, Protein RecA (Mycobacterium tuberculosis, UniProt P9WHJ3); assay: Fluorescence Cell-Free Homogeneous Dose Retest to Identify Inhibitors of RecA-Intein Splicing Activity. [Related pubchem assays (depositor defined):AID2097, AID2223, AID489010, AID492950]; format: functional
T3 sequence (P9WHJ3 whole entry): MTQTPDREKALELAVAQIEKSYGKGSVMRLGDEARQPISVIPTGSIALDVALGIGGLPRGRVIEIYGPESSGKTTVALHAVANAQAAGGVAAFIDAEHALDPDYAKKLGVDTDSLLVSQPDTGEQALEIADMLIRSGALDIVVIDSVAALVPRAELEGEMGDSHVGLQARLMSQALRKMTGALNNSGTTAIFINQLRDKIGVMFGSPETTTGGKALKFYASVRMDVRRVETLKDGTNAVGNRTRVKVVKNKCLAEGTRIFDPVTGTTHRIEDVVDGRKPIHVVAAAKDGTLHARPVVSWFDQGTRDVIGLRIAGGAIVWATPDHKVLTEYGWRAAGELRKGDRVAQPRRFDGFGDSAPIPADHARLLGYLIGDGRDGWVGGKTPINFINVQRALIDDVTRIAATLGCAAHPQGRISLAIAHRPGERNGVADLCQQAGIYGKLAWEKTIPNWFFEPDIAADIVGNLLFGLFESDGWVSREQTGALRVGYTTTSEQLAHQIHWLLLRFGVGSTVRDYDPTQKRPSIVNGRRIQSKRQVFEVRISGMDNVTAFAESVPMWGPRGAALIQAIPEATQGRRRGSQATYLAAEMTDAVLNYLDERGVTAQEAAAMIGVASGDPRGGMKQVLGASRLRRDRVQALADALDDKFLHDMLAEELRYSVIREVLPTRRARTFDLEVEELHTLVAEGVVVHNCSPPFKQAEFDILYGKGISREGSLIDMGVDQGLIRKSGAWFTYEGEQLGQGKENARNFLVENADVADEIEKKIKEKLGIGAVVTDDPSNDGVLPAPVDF

[3] = molecular target: T4, Mitochondrial peptide methionine sulfoxide reductase (Bos taurus, UniProt P54149); assay: Absorbance-based biochemical high throughput dose response assay for activators of Methionine sulfoxide reductase A (MsrA).; format: functional
T4 sequence (P54149 whole entry): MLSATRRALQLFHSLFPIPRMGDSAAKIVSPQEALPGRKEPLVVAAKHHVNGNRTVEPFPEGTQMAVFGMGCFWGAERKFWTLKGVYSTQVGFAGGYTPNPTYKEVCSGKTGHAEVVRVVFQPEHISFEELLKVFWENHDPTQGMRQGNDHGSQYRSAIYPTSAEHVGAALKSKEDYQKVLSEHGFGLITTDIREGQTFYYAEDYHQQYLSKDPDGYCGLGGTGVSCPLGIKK

[4] = molecular target: T4, Mitochondrial peptide methionine sulfoxide reductase; format: functional
[5] = ARNT/TACC3 interaction disruptors, potency, confirmation, biochemical, AlphaScreen, cherry-picked samples (AID 651703); format: functional, Homo sapiens;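 also: His-tagged ARNT PAS-B domain paired with GST-TACC3 E629A dimer coactivator fragment; potency of inhibitors that break up the complex and lower AlphaScreen signal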
[6] = HEp-2 cell cytotoxicity, dose response, cytotoxicity control for RSV inhibitor project, HTS (AID 2410); format: functional; details: human respiratory syncytial virus
INS1 = assay: beta cell apoptosis inhibitors, cytokine rescue, dose response, luminescence, retest (AID 449756); format: functional, cell-based; details: Rattus norvegicus;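 also: cell death triggered by IL-1 beta plus TNF-alpha plus IFN-gamma mixture; protective hits raise ATP signal compared with cytokine alone wells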
Protein Wnt-3a = Protein Wnt-3a (Mus musculus, UniProt P27467); assay: Wnt3a-driven reporter signaling inhibition, dose response, selectivity assay for Gli-SUFU antagonist project, Wnt-LIGHT cells, luminescence (AID 651570); format: functional; details: read-out: IC50_Mean;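 also: Wnt-LIGHT reporter cells stimulated with conditioned medium from Wnt3a-producing cells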
Sequence of Protein Wnt-3a (P27467 whole entry): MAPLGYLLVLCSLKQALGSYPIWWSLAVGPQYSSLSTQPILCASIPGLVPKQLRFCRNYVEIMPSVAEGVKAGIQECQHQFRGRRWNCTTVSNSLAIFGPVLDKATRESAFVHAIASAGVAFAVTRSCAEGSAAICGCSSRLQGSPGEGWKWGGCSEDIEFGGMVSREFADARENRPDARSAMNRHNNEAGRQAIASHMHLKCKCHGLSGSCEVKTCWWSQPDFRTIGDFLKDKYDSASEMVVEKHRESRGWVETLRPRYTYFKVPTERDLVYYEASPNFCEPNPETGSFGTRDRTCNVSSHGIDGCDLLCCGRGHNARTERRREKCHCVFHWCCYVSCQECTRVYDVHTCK

## O=C1/C(=N/c2ccc(O)cc2)C(Cl)=C(O)c2ccccc21
[1]
  EC50: > 1.13 µM (active)
[2]
  AC50: 3.36 µM (active)
Protein RecA
  EC50: 3.48 µM (active)
[3]
  EC50: > 104 µM (inactive)
[4]
  IC50: 155 µM (inactive)

## Cn1ccnc1-c1nc2ccccc2nc1O
[5]
  AC50: 71.9 µM (active)

## Cc1ccc(Cl)cc1N1CCN(C(=O)CSc2nnc3n2C(C)(C)Cc2ccccc2-3)CC1
[6]
  CC50: < 0.1 µM (active)
INS1
  AC50: 5.01 µM (active)
Protein Wnt-3a
  IC50: 4.43 µM (active)
